Test results from patent publication US12257247B2 (Monte Rosa Therapeutics AG, priority 2023, dated 2025).
Where two headings read alike, the source gives them in different places.

Biological target: T1, VAV1 (Homo sapiens, UniProt P15498+Q96SW2)
T1 construct: A heterozygous VAV1 C-terminal HiBiT knock-in pool was generated at Monte Rosa Therapeutics from a clonal Jurkat cell; endogenous in cells; host or cells: Jurkat clone stably expressing LgBiT, homozygous GSPT1-G575N; heterozygous VAV1-HiBiT knock-in pool
Test: VAV1 degradation activity, VAV1-HiBiT knock-in Jurkat luminescence assay (Example A, Table 1)
Assay type: cell-based
Conditions: VAV1-HiBiT knock-in Jurkat cells, luminescence read at 6 and 24 hours; for Dmax: Jurkat
Procedure, shortened: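 Luminescence was measured at 6 and 24 h after adding compound (10 μM stock) to VAV1-HiBiT knock-in Jurkat cells, which had been pre-incubated ~16 h at 37° C. in RPMI/10% FBS containing Endurazine. EC50 values came from control-normalised responses fitted to a 3-parameter logistic model with hillslope fixed at 1.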

[1] = read-out: VAV1 DC50 (nM), class

| SMILES | Dmax (read-out: VAV1 Dmax %) [%] | Dmax (read-out: VAV1 Dmax %, class) [%] | DC50 (read-out: VAV1 DC50) [nM] | DC50 [1] [nM] |
| --- | --- | --- | --- | --- |
| O=C1CCC(c2cccc(-c3ccc4c(c3)CC(=O)N4Cc3ncccn3)c2Cl)C(=O)N1 (stereo not drawn) [Compound 393, 3-(2-chloro-3-(2-oxo-1-(pyrimidin-2-ylmethyl)indolin-5-yl)phenyl)piperidine-2,6-dione] | 86.7 | 60 to 90 | 29.3 | ≤ 100 |
| O=C1CCC(c2cccc(-c3ccc(N4C(=O)CCC45CCC5)nc3)c2Cl)C(=O)N1 (stereo not drawn) [Compound 394, 3-(2-chloro-3-(6-(6-oxo-5-azaspiro[3.4]octan-5-yl)pyridin-3-yl)phenyl)piperidine-2,6-dione] | 88.7 | 60 to 90 | 36.2 | ≤ 100 |
| O=C1CCC(c2cccc(-c3ccc4c(c3)CC(=O)N4Cc3cccnn3)c2Cl)C(=O)N1 (stereo not drawn) [Compound 395, 3-(2-chloro-3-(2-oxo-1-(pyridazin-3-ylmethyl)indolin-5-yl)phenyl)piperidine-2,6-dione] | 83.9 | 60 to 90 | 55.7 | ≤ 100 |
| O=C1CCC(c2cccc(-c3ccc4c(cnn4Cc4ncccn4)c3)c2Cl)C(=O)N1 (stereo not drawn) [Compound 396, 3-(2-chloro-3-(1-(pyrimidin-2-ylmethyl)-1H-indazol-5-yl)phenyl)piperidine-2,6-dione] | 96.9 | > 90 | 4.98 | ≤ 100 |
| Cn1cnc(Cn2ncc3cc(-c4cccc(C5CCC(=O)NC5=O)c4Cl)ccc32)c1 (stereo not drawn) [Compound 397, 3-(2-chloro-3-(1-((1-methyl-1H-imidazol-4-yl)methyl)-1H-indazol-5-yl)phenyl)piperidine-2,6-dione] | 99.1 | > 90 | 3.01 | ≤ 100 |
| O=C1CCC(c2cccc(-c3ccc(Cc4ncccn4)nc3)c2Cl)C(=O)N1 (stereo not drawn) [Compound 400, 3-(2-chloro-3-(6-(pyrimidin-2-ylmethyl)pyridin-3-yl)phenyl)piperidine-2,6-dione] | 81.5 | 60 to 90 | 77 | ≤ 100 |
| O=C1CCC(c2cccc(-c3ccc(Cc4ccncn4)cc3)c2Cl)C(=O)N1 (stereo not drawn) [Compound 401, 3-(2-chloro-4′-(pyrimidin-4-ylmethyl)-[1,1′-biphenyl]-3-yl)piperidine-2,6-dione] | 94.4 | > 90 | 15 | ≤ 100 |
| CC1(C)COCC(=O)N1c1ccc(-c2cccc(C3CCC(=O)NC3=O)c2Cl)cc1 (stereo not drawn) [Compound 402, 3-(2-chloro-4′-(3,3-dimethyl-5-oxomorpholino)-[1,1′-biphenyl]-3-yl)piperidine-2,6-dione] | 97.4 | > 90 | 5.3 | ≤ 100 |
| CC1(C)CCCC(=O)N1c1ccc(-c2cccc(C3CCC(=O)NC3=O)c2Cl)cc1 (stereo not drawn) [Compound 403, 3-(2-chloro-4′-(2,2-dimethyl-6-oxopiperidin-1-yl)-[1,1′-biphenyl]-3-yl)piperidine-2,6-dione] | 98.2 | > 90 | 3.26 | ≤ 100 |
| O=C1CCC(c2cccc(-c3ccc(CN4C(=O)CCCC45CC5)nc3)c2Cl)C(=O)N1 (stereo not drawn) [Compound 404, 3-(2-chloro-3-(6-((5-oxo-4-azaspiro[2.5]octan-4-yl)methyl)pyridin-3-yl)phenyl)piperidine-2,6-dione] | 65.5 | 60 to 90 | 262 | 100 to 1000 |
| O=C1CCC(c2cccc(-c3ccc(N4C(=O)CC45CCC5)cc3)c2Cl)C(=O)N1 (stereo not drawn) [Compound 405, 3-(2-chloro-4′-(2-oxo-1-azaspiro[3.3]-heptan-1-yl)-[1,1′-biphenyl]-3-yl)piperidine-2,6-dione] | 76.3 | 60 to 90 | 383 | 100 to 1000 |
| CN1Cc2cccc(-c3ccc(-c4cccc(C5CCC(=O)NC5=O)c4Cl)cc3)c2S1(=O)=O (stereo not drawn) [Compound 406, 3-(2-chloro-4′-(2-methyl-1,1-dioxido-2,3-dihydrobenzo[d]isothiazol-7-yl)-[1,1′-biphenyl]-3-yl)piperidine-2,6-dione] | 82.4 | 60 to 90 | 25.9 | ≤ 100 |
| O=C1CCC(c2cccc(-c3ccc(N4C(=O)CCCC45COC5)cc3)c2Cl)C(=O)N1 (stereo not drawn) [Compound 407, 3-(2-chloro-4′-(6-oxo-2-oxa-5-azaspiro[3.5]nonan-5-yl)-[1,1′-biphenyl]-3-yl)piperidine-2,6-dione] | 95.5 | > 90 | 6.17 | ≤ 100 |
| Cn1cnc(Cc2ccc(-c3cccc(C4CCC(=O)NC4=O)c3Cl)cc2)c1 (stereo not drawn) [Compound 408, 3-(2-chloro-4′-((1-methyl-1H-imidazol-4-yl)methyl)-[1,1′-biphenyl]-3-yl)piperidine-2,6-dione] | 96 | > 90 | 30.8 | ≤ 100 |
| CN1CCC[C@H](c2ccc(-c3cccc(C4CCC(=O)NC4=O)c3Cl)cc2)C1=O (stereo partly drawn) [Compound 409, 3-(2-chloro-4′-((R)-1-methyl-2-oxopiperidin-3-yl)-[1,1′-biphenyl]-3-yl)piperidine-2,6-dione] | 95.2 | > 90 | 7.82 | ≤ 100 |
| CN1CCC[C@@H](c2ccc(-c3cccc(C4CCC(=O)NC4=O)c3Cl)cc2)C1=O (stereo partly drawn) [Compound 410, 3-(2-chloro-4′-((S)-1-methyl-2-oxopiperidin-3-yl)-[1,1′-biphenyl]-3-yl)piperidine-2,6-dione] | 92.1 | > 90 | 17 | ≤ 100 |
| COCc1ccn(C)c(=O)c1-c1ccc(-c2cccc(C3CCC(=O)NC3=O)c2Cl)cc1 (stereo not drawn) [Compound 411, 3-(2-chloro-4′-(4-(methoxymethyl)-1-methyl-2-oxo-1,2-dihydropyridin-3-yl)-[1,1′-biphenyl]-3-yl)piperidine-2,6-dione] | 98.2 | > 90 | 1.99 | ≤ 100 |
| O=C1CCC(c2cccc(-c3cnc(Cn4ccccc4=O)c(F)c3)c2Cl)C(=O)N1 (stereo not drawn) [Compound 412, 3-(2-chloro-3-(5-fluoro-6-((2-oxopyridin-1(2H)-yl)methyl)pyridin-3-yl)phenyl)piperidine-2,6-dione] | 67.3 | 60 to 90 | 418 | 100 to 1000 |
| CC1(C)CCC(=O)N1c1ccc(-c2cccc(C3CCC(=O)NC3=O)c2Cl)cc1 (stereo not drawn) [Compound 413, 3-(2-chloro-4′-(2,2-dimethyl-5-oxopyrrolidin-1-yl)-[1,1′-biphenyl]-3-yl)piperidine-2,6-dione] | 97.5 | > 90 | 4.87 | ≤ 100 |
| O=C1CCC(c2cccc(-c3ccc(N4C(=O)CCC45CC5)cc3)c2Cl)C(=O)N1 (stereo not drawn) [Compound 414, 3-(2-chloro-4′-(5-oxo-4-azaspiro[2.4]heptan-4-yl)-[1,1′-biphenyl]-3-yl)piperidine-2,6-dione] | 97.7 | > 90 | 5.85 | ≤ 100 |
| CC1(C)COC(=O)N1c1ccc(-c2cccc(C3CCC(=O)NC3=O)c2Cl)cc1 (stereo not drawn) [Compound 415, 3-(2-chloro-4′-(4,4-dimethyl-2-oxooxazolidin-3-yl)-[1,1′-biphenyl]-3-yl)piperidine-2,6-dione] | 97.2 | > 90 | 4.87 | ≤ 100 |
